Experimental data: patent US4910021A, “Targeted enternal delivery system” (priority 1985, dated 1990)
Where two headings read alike, the source gives them in different places.

Experiments:
blood glucose = assay: Hypoglycemia effect in rats after oral (coated capsules) or intraperitoneal insulin; assay type: in vivo, rat (Hebrew University strain male rats); set-up: AUC (area under the % glucose reduction versus time curve): unit not given beside the values; details: i.p., 4 iu, 15 iu kg^-1, rats
rats = details: intrajejunal injection in presence of Cetamacrogol 1000, rats; cited from earlier work
[1] = rectal, dogs, cited from earlier work

Substance: insulin: porcine insulin Leo Neutral 100 iu ml^-1 (Nordisk Gentofte); i.p. 4 iu neutral insulin
- AUC (area under the % glucose reduction versus time curve) (blood glucose): 258
- Cmax (maximum % glucose reduction) (blood glucose): 58%
- tmax (time of the maximum effect) (blood glucose): 2 h
- hypoglycemia (rats): significant hypoglycemia
- bioavailability ([1]; before improvement by post-administration of promoter): 19.4%
- bioavailability ([1]; with post-administration of promoter (enamine)): 38.2%
